Results reported in patent US7115629B2, “Carbamates derived from arylalkylamines” (Laboratorios S.A.L.V.A.T., S.A., priority 2000, dated 2006).
Structures can show the parent of a compound that is named as a salt. Where two headings read alike, the source gives them in different places.

What was measured:
[1] = molecular target: T1, human M3 receptors (Homo sapiens, UniProt P20309); experiment: Binding test to cloned human M3 muscarinic receptor ([3H]-NMS displacement, CHO-K1 membranes)
T1 construct: purchased Receptor Biology; host or cells: CHO-K1 cells transfected with the human receptor (membranes)
T1 sequence (P20309 whole entry): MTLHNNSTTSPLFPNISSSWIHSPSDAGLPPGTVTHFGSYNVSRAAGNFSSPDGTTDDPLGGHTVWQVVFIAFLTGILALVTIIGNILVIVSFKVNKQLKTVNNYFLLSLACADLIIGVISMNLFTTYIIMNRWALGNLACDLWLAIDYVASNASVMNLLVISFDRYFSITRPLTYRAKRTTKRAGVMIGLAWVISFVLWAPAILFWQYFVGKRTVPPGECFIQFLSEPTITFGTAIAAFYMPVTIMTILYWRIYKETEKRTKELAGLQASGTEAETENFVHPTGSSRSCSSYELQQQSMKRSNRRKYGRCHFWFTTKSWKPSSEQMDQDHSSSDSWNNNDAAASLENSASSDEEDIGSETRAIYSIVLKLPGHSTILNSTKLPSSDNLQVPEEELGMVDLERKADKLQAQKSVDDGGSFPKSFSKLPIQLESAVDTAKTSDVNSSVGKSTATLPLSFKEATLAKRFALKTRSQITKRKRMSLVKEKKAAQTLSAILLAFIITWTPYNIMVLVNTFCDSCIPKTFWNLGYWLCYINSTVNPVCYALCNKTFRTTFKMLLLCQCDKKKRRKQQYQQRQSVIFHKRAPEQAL
Method: (§1) Membranes from CHO—K1 cells transfected with human M2 or M3 receptors (Receptor Biology) were used. The summarised experimental procedure for both receptors was the following: membranes (15–20 μg) were incubated with [^3H]-NMS (0.3–0.5 nM) for 60 min at 25° C., in presence or absence of the antagonists. Incubation was carried out in 96 wells polystyrene microplates in a total incubation volume of 0.2 mL of PBS pH 7.4. Non specific binding was determined in parallel assays in presence of atropine (5 μM). Samples were filtered through type GF/C glass fibre, preincubated with PEI 0.3%. Filters were washed 3–4 times with 50 mM Tris-HCl, 0.9% NaCl, pH 7.4 at 4° C., and dried at 50° C. for 45 min. Filter bound radioactivity was quantified by liquid scintillation counting.
(§2) For the calculation of the inhibition constant (Ki), displacement curves were analysed by non-linear regression (GraphPad Prism). Dissociation constant (KD) of [^3H]-NMS for each receptor was obtained through the saturation curves obtained in the same conditions as the experiments carried out with the antagonists.

[2] = molecular target: T2, human M2 receptors (Homo sapiens, UniProt P08172); experiment: Binding test to cloned human M2 muscarinic receptor ([3H]-NMS displacement, CHO-K1 membranes), reported as M2/M3 ratio; conditions: value greater than 1 indicates selectivity for the M3 receptor
T2 construct: purchased Receptor Biology; host or cells: CHO-K1 cells transfected with the human receptor (membranes)
T2 sequence (P08172 1-466): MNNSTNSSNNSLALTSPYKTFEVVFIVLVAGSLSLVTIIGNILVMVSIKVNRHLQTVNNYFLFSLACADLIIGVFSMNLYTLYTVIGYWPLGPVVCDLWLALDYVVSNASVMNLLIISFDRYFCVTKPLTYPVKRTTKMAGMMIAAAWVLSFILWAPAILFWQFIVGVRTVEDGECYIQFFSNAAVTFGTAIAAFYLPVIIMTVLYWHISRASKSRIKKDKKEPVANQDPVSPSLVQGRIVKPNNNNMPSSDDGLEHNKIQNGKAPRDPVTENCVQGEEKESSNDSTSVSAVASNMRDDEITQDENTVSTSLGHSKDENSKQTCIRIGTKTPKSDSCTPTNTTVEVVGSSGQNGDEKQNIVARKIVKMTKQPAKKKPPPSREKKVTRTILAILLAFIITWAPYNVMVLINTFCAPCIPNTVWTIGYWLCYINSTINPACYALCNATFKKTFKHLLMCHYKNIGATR
Method: as §1, §2

[3] = membranes of CHO-K1 cells transfected with human M3, [3H]-NMS, mean of two independent experiments in duplicate, read-out: M3 (human M3 antagonist activity, binding affinity constant Ki)

Row | SMILES | Ki [1] | M2/M3 (ratio between M2 and M3 receptor affinities) [2] | Ki [1, 3]
1 | O=C(OC1CN2CCC1CC2)N(Cc1ccccc1)c1ccccc1 (stereo not drawn) [Example 1, 3-quinuclidyl N-benzyl-N-phenylcarbamate, hydrochloride] | 0.45 nM | 10 | 
2 | O=C(O[C@H]1CN2CCC1CC2)N(Cc1ccccc1)c1ccccc1 [Example 2, (R)-3-quinuclidyl N-benzyl-N-phenylcarbamate, hydrochloride] | 0.31 nM | 5 | 
3 | C[N+]12CCC(CC1)C(OC(=O)N(Cc1ccccc1)c1ccccc1)C2.[I-] [Example 3, (R)-3-N-benzyl-N-phenylcarbamoyloxy)-1-methylquinuclidinium iodide] |  | 7 | 2.6 nM
4 | O=C(OC1CN2CCC1CC2)N(Cc1ccccc1)c1ccccc1F (stereo not drawn) [Example 5] |  | 47 | 0.047 nM
5 | O=C(OC1CN2CCC1CC2)N(Cc1ccccc1)c1cccc(Cl)c1 (stereo not drawn) [Example 6] |  | 87 | 0.21 nM
6 | O=C(OC1CN2CCC1CC2)N(Cc1ccccc1)c1cccc(Br)c1 (stereo not drawn) [Example 7] |  | 19 | 2.05 nM
7 | O=C(O[C@H]1CN2CCC1CC2)N(Cc1ccccc1)c1c(F)cccc1F [Example 8] |  | 11 | 0.2 nM
8 | O=C(OC1CN2CCC1CC2)N(Cc1ccccc1)c1ccc(F)c(F)c1 (stereo not drawn) [Example 9] |  | 9 | 19.6 nM
9 | Cc1cccc(N(Cc2ccccc2)C(=O)OC2CN3CCC2CC3)c1 (stereo not drawn) [Example 10] |  | 44 | 0.14 nM
10 | Cc1cccc(C)c1N(Cc1ccccc1)C(=O)OC1CN2CCC1CC2 (stereo not drawn) [Example 11] |  | 11 | 6.12 nM
11 | O=C(OC1CN2CCC1CC2)N(Cc1ccccc1)c1ccc2c(c1)CCC2 (stereo not drawn) [Example 12] |  | 6 | 30.7 nM
12 | N#Cc1ccc(N(Cc2ccccc2)C(=O)OC2CN3CCC2CC3)cc1 (stereo not drawn) [Example 13] |  | 17 | 4.31 nM
13 | O=C(OC1CN2CCC1CC2)N(Cc1ccccc1)c1ccccc1O (stereo not drawn) [Example 14] |  | 21 | 0.31 nM
14 | Cc1ccc(F)c(N(Cc2ccccc2F)C(=O)OC2CN3CCC2CC3)c1 (stereo not drawn) [Example 15] |  | 21 | 0.53 nM
15 | O=C(OC1CN2CCC1CC2)N(Cc1ccccc1Br)c1ccccc1 (stereo not drawn) [Example 16] |  | 13 | 4.23 nM
16 | O=C(OC1CN2CCC1CC2)N(Cc1cccc(F)c1)c1cccc(F)c1 (stereo not drawn) [Example 17] |  | 196 | 0.054 nM
17 | O=C(OC1CN2CCC1CC2)N(Cc1ccc(F)cc1)c1cccc(F)c1F (stereo not drawn) [Example 18] |  | 154 | 0.92 nM
18 | Cc1ccc(F)c(N(Cc2ccc(Cl)cc2)C(=O)OC2CN3CCC2CC3)c1 (stereo not drawn) [Example 19] |  | 23 | 1.2 nM
19 | O=C(OC1CN2CCC1CC2)N(Cc1cccc(F)c1F)c1cccc(Cl)c1 (stereo not drawn) [Example 20] |  | 149 | 0.33 nM
20 | O=C(OC1CN2CCC1CC2)N(Cc1ccc(Cl)cc1Cl)c1ccc(F)cc1F (stereo not drawn) [Example 21] |  | 5 | 105 nM
21 | Cc1cccc(N(Cc2ccc(F)cc2F)C(=O)OC2CN3CCC2CC3)c1 (stereo not drawn) [Example 22] |  | 21 | 0.51 nM
22 | COc1ccc(CN(C(=O)OC2CN3CCC2CC3)c2cccc(Cl)c2)c(F)c1 (stereo not drawn) [Example 23] |  | 118 | 0.73 nM
23 | O=C(OC1CN2CCC1CC2)N(Cc1cc(F)ccc1F)c1ccccc1Cl (stereo not drawn) [Example 24] |  | 33 | 0.48 nM

Row | SMILES | Ki [1] | M2/M3 (ratio between M2 and M3 receptor affinities) [2] | Ki [1, 3]
24 | COc1ccc(F)c(CN(C(=O)OC2CN3CCC2CC3)c2ccccc2)c1 (stereo not drawn) [Example 25] |  | 19 | 1.7 nM
25 | O=C(OC1CN2CCC1CC2)N(Cc1ccc(F)c(F)c1)c1ccccc1 (stereo not drawn) [Example 26] |  | 50 | 0.1 nM
26 | O=C(OC1CN2CCC1CC2)N(Cc1ccc(Cl)c(F)c1)c1ccccc1F (stereo not drawn) [Example 27] |  | 92 | 0.37 nM
27 | O=C(OC1CN2CCC1CC2)N(Cc1ccc(F)c(Cl)c1)c1ccccc1 (stereo not drawn) [Example 28] |  | 35 | 1.5 nM
28 | O=C(OC1CN2CCC1CC2)N(Cc1ccc(Cl)c(Cl)c1)c1ccccc1 (stereo not drawn) [Example 29] |  | 50 | 1.4 nM
29 | Cc1cccc(N(Cc2cc(F)cc(F)c2)C(=O)OC2CN3CCC2CC3)c1 (stereo not drawn) [Example 30] |  | 74 | 0.09 nM
30 | Cc1cccc(N(Cc2ccc(C)c(F)c2)C(=O)OC2CN3CCC2CC3)c1 (stereo not drawn) [Example 31] |  | 52 | 0.32 nM
31 | COc1ccc(CN(C(=O)OC2CN3CCC2CC3)c2ccccc2F)cc1F (stereo not drawn) [Example 32] |  | 19 | 3.3 nM
32 | O=C(OC1CN2CCC1CC2)N(Cc1ccc(F)c(F)c1F)c1cccc(Cl)c1 (stereo not drawn) [Example 33] |  | 142 | 0.4 nM
33 | Cc1cccc(N(Cc2cc(F)cc(F)c2F)C(=O)OC2CN3CCC2CC3)c1 (stereo not drawn) [Example 34] |  | 90 | 0.3 nM
34 | Cc1cccc(N(Cc2cc(F)c(F)cc2F)C(=O)OC2CN3CCC2CC3)c1 (stereo not drawn) [Example 35] |  | 839 | 0.031 nM
35 | O=C(OC1CN2CCC1CC2)N(Cc1cc(F)c(F)c(F)c1)c1cccc(F)c1 (stereo not drawn) [Example 36] |  | 545 | 0.04 nM
36 | O=C(OC1CN2CCC1CC2)N(Cc1cc(F)c(F)c(F)c1)c1ccc(F)cc1 (stereo not drawn) [Example 37] |  | 134 | 0.66 nM
37 | Cc1cccc(N(Cc2ccccc2C)C(=O)OC2CN3CCC2CC3)c1 (stereo not drawn) [Example 38] |  | 40 | 0.23 nM
38 | O=C(OC1CN2CCC1CC2)N(Cc1ccc(C(F)(F)F)cc1)c1ccccc1 (stereo not drawn) [Example 39] |  | 84 | 0.32 nM
39 | CCc1ccc(CN(C(=O)OC2CN3CCC2CC3)c2ccccc2)cc1 (stereo not drawn) [Example 40] |  | 92 | 0.066 nM
40 | CC(C)(C)c1ccc(CN(C(=O)OC2CN3CCC2CC3)c2ccccc2)cc1 (stereo not drawn) [Example 41] |  | 271 | 0.11 nM
41 | Cc1ccccc1N(Cc1ccc(CO)cc1)C(=O)OC1CN2CCC1CC2 (stereo not drawn) [Example 42] |  | 38 | 1.17 nM
42 | N#Cc1ccc(CN(C(=O)OC2CN3CCC2CC3)c2ccccc2)cc1 (stereo not drawn) [Example 43] |  | 31 | 0.9 nM
43 | NC(=O)c1ccc(CN(C(=O)OC2CN3CCC2CC3)c2ccccc2)cc1 (stereo not drawn) [Example 44] |  | 6 | 7.7 nM
44 | O=C(OC1CN2CCC1CC2)N(Cc1ccccc1O)c1ccccc1F (stereo not drawn) [Example 45] |  | 37 | 0.18 nM
45 | Cc1cccc(N(Cc2cccc(O)c2)C(=O)OC2CN3CCC2CC3)c1 (stereo not drawn) [Example 46] |  | 33 | 0.15 nM
